Values joined by “and” are separate entries in the source; they are usually repeats but may differ in a detail not shown here. Identical values can stand only once.
How the values were obtained:
PSA = assay: Example 9: PSA; type: in vivo, human
Protocol: (§1) Eligible male patients were aged ≥18 years with a histologically confirmed diagnosis of localized, intermediate-risk prostate cancer, for whom 6-month neoadjuvant and adjuvant androgen deprivation therapy (ADT) to external beam radiation therapy (EBRT) was indicated. The criteria for establishing intermediate-risk prostate cancer included the presence of one of the following, without any high-risk feature: T2b-T2c disease, Gleason score 7, or prostate-specific antigen (PSA) 10-20 ng/mL. Additional inclusion criteria included: EBRT scheduled to begin ≥12 weeks after baseline visit; screening serum testosterone >150 ng/dL (5.2 nmol/L); screening PSA concentration >2 ng/ml; body mass index ≥18.0 at screening or baseline (i.e., the subject's BMI prior to treatment commencing); Eastern Cooperative Oncology Group performance status of 0 or 1 at screening. Based on investigator discretion and clinical assessment of the patient's overall medical and disease status, participation was allowed for older patients with high-risk disease (e.g., based on Gleason score or tumor status) who were deemed likely to benefit from 6 months of neoadjuvant/adjuvant ADT. Most patients had intermediate-risk disease. However, a few patients, based on Gleason score or tumor, node, and metastasis staging system, were technically of higher than intermediate risk.
(§2) Both treatment arms received treatment for 24 weeks. Patients remained on treatment for at least 12 weeks before the start of external beam radiation treatment (EBRT), which was initiated for most patients between Week 13, Day 1 and Week 15, Day 1. EBRT began no later than day 1, week 17.
(§3) Patients were evaluated every 4 weeks during the treatment period (including day 1, week 25), at end of treatment (defined as week 29), during follow-up (week 33), and at end of study (EOS).
(§4) Samples for testosterone, luteinizing hormone (LH), FSH, and PSA concentrations were taken at screening, on day 1 of the first week (additionally days 2 and 4 for testosterone and LH), and on day 1 of weeks 2, 3, 5, 9, 13, 17, 21, 25, 29, 33, and 37 thereafter. […] Suppression of FSH was less profound than that of LH, but consistent with the literature, and was greater than that observed with GnRH agonists.

serum DHT = assay: Example 7: serum DHT in healthy men; type: in vivo, human
Protocol: (§5) FSH, DHT, and insulin-like growth factor 1 (IGF-1; Parts 3 and 4 only) were measured in a subset of samples. Serum testosterone was assayed using a conventional immunoassay for screening (LLOQ=0.4 nmol/L). A validated LC/MS/MS method, with an LLOQ of 0.173 nmol/L and a ULOQ of 10.425 nmol/L, was used for all subsequent baseline (i.e., the subject's serum hormone levels prior to treatment commencing) and postdose measurements.

[1] = tested on: serum LH, FSH, DHT and SHBG; assay: Example 6: serum LH, FSH, DHT and SHBG; type: in vivo, human; conditions: for serum LH, FSH and DHT concentrations: all dose levels
healthy men = assay: Example 7: safety and tolerability in healthy men
Protocol: The 40 mg dose was administered once per day with a single load dose of 360 mg on Day 1 of the 14 days of treatment administration. For the 20 mg dosages, one 20 mg dose was administered with loading doses of 320 mg on Day 1, 240 mg on Day 2, and 160 mg on Day 3, and the other 20 mg dose was administered with loading doses of 320 mg on Day 1 and 160 mg on Day 2. […] The 40 mg dose was administered with loading doses of 320 mg and 160 mg on Days 1 and 2 of treatment, respectively.

serum FSH = assay: Example 7: serum FSH in healthy men; type: in vivo, human
Protocol: as §5

rats = conditions: rat, in vivo
FSH = assay: Example 9: FSH; type: in vivo, human
Protocol: as §1, §2, §3, §4

[2] = tested on: patients with advanced prostate cancer; assay: Example 8: treatment-emergent adverse events (safety population)
Protocol: The core tablets were coated with a film coating comprising hypromellose 2910 (21.36 mg), titanium dioxide (2.4 mg), and red ferric oxide (0.06 mg).
For patients receiving leuprolide acetate (leuprorelin), on-treatment study visits occurred at baseline (day 1, week 1), day 1 of weeks 2, 3, and 5, and then every 4 weeks until week 25, and then at 12 week intervals (week 37 and 49). Patients on leuprorelin received their final injection at week 37, day 1, and the week 49, day 1 visit was considered the end of leuprorelin exposure. Patients receiving leuprorelin at visits at 16 (EOT), 20 (follow-up visit), and 24 (EOS) weeks after the last leuprorelin injection.
Efficacy and safety analyses were conducted using a safety population (received ≥1 dose of study drug). […] Safety was assessed by recording the incidence, severity, and types of treatment-emergent adverse events; by physical examination (including slit lamp examination of the anterior eye); and by evaluating changes from baseline in weight, vital signs, 12-lead electrocardiogram (ECG), and clinical laboratory parameters. […] Adverse events were coded using the Medical Dictionary for Regulatory Activities version 19.0 and graded according to National Cancer Institute Common Terminology Criteria version 4.03 (Tables 7 and 8). Safety-related haematology, chemistry, and urinalysis measurements were taken at each study visit and analysed at a central laboratory (LabCorp). Phospholipidosis was assessed as part of the safety assessments.

serum LH = assay: Example 7: serum LH in healthy men; type: in vivo, human
Protocol: as §5

FIG. 23 = assay: FIG. 23
Text: Table printed on a drawing sheet, FIG. 23
First reader's note: The rows 'Plasma' and 'Urine' are section heads (matrix); the sheet explains neither the footnote marks a and b nor the values in brackets.

## CONC(=O)Nc1ccc(-c2sc3c(c2CN(C)C)c(=O)n(-c2ccc(OC)nn2)c(=O)n3Cc2c(F)cccc2F)cc1 [Compound 1, N-(4-(1-(2,6-difluorobenzyl)-5-((dimethylamino)methyl)-3-(6-methoxy-3-pyridazinyl)-2,4-dioxo-1,2,3,4-tetrahydrothieno[2,3-d]pyrimidin-6-yl)phenyl)-N′-methoxyurea]
PSA; Baseline
  Median PSA: 7.3 µg/L
PSA; Week 24
  Median PSA: 0.07 µg/L
PSA; Week 28/EOT visit
  Median PSA: 0.07 µg/L
PSA; Week 32/follow-up
  Median PSA: 0.2 µg/L
PSA; Week 36/EOS
  Median PSA: 0.2 µg/L
PSA; by Week 13 Day 1 visit
  average PSA level: < 0.2 ng/mL
PSA; by the end of 12 weeks
  patients achieving PSA values less than 0.2 ng/ml: 6 of 30
PSA; end of 8 weeks of dosing, before radiation therapy
  PSA % responses in most patients: exceed 89%
Serum DHT; Part 1 single doses 80-360 mg
  time postdose at which mean serum DHT began to decrease: 2 h
Serum DHT; Part 2, 80 mg, baseline 1.883 nmol/L
  mean serum dihydrotestosterone at end of 16 days: 1.095 nmol/L
Serum DHT; Part 2, 180 mg, baseline 1.882 nmol/L
  mean serum dihydrotestosterone at end of 16 days: 0.865 nmol/L
[1]; Part A
  serum SHBG, baseline versus postdose: no particular changes
  serum LH, FSH and DHT concentrations: rapidly suppressed
[1]; Part B
  serum SHBG, baseline versus postdose: no particular changes
  serum LH, FSH and DHT concentrations: rapidly suppressed
FIG. 20
  CLr (L/h): 7.57 (13.4) L/h and 8.11 (12.7) L/h and 9.24 (10.0) L/h and 8.64 (10.8) L/h
  Fe (%): 2.95 (41.5) % and 2.05 (33.4) % and 1.46 (38.7) %
  t1/2(h): 20.8 (5.2) h and 21.3 (20.0) h and 21.7 (8.9) h
Healthy men; across all dose cohorts
  most common treatment emergent adverse events: bradycardia, hot flush, and headache
Healthy men; in vivo
  changes in QT/QTc intervals: consistent with those described in the literature with other medical castration agents
  most common drug-related TEAE: hot flash
Healthy men; single and multiple doses
  overall safety and tolerability: safe and well tolerated
Healthy men; single dose or multiple dose for 14 or 28 days
  deaths, SAEs or severe AEs: no deaths, serious adverse events (SAEs), or severe AEs
Healthy men; without symptoms or changes in total bilirubin
  transaminases: Mild to moderate transaminase elevations
Serum FSH; Part 1 single doses 80-360 mg
  time postdose at which mean serum FSH began to decrease: 2 h
  time postdose of lowest mean serum FSH: 48 h
Serum FSH; Part 2, 80 mg, baseline 6.07 IU/L
  mean serum FSH at end of 16 days: 0.67 IU/L
Serum FSH; Part 2, 180 mg, baseline 3.88 IU/L
  mean serum FSH at end of 16 days: 0.33 IU/L
rats
  adverse effect observed in non-clinical toxicity studies: phospholipidosis
FSH; Baseline
  FSH level before administration: 11.826 IU/L
FSH; Week 2, Day 1
  FSH level: 2.363 IU/L
FSH; Week 25, Day 1
  mean FSH level: 1.475 IU/L
[2]; 80 mg QD
  Acute coronary syndrome, Grade ≥3: 0 n (%)
  Death (Table 7): 1 (2) n (%)
  Death, Grade ≥3 (Table 8): 0 n (%)
  Sudden death, Grade ≥3: 0 n (%)
[2]; 120 mg QD
  Acute coronary syndrome, Grade ≥3: 1 (2) n (%)
  Death (Table 7): 0 (0) n (%)
  Death, Grade ≥3 (Table 8): 1 (2) n (%)
  Sudden death, Grade ≥3: 1 (2) n (%)
[2]; in vivo
  overall safety profile: appeared similar to that seen in the smaller observational leuprorelin cohort
Serum LH; Part 2, 80 mg, baseline 4.57 IU/L
  mean serum LH at end of 16 days: 0.33 IU/L
Serum LH; Part 2, 180 mg, baseline 3.90 IU/L
  mean serum LH at end of 16 days: 0.23 IU/L
FIG. 23
  CLr (L/h): 6.92 (29.5) L/h and 5.51 (26.7) L/h and 6.42 (25.0) L/h and 7.66 (17.4) L/h and 7.43 (16.2) L/h
  Fe (%): 1.44 (31.8) % and 1.35 (40.0) % and 1.76 (38.6) % and 1.89 (20.2) % and 2.88 (45.6) %
  t1/2(h): 50.6 (20.2) h and 49.4 (30.6) h and 36.5 (17.4) h

— patent US12629370B2, “Treatment of prostate cancer” (Sumitomo Pharma Co., Ltd., priority 2016, dated 2026)
